One block for each molecule: values may come before it.
Assays:
Assay type in all cases: functional, cell membranes, Membrane vesicle
MRP4 (ABCC4) [1] = biological target: T1, MRP4 (ABCC4) (Homo sapiens, UniProt O15439); assay: TP_TRANSPORTER: inhibition of MTX uptake (MTX: 0.1 uM, p-Nitropenyl-beta-D-glucuronide: 1000 uM) in membrane vesicles from MRP4-expressing Sf9 cells; parameters: scale not given: the % may be the effect or the level left; settings: probe methotrexate 0.1 uM, read-out: Activity
T1 sequence (O15439 whole entry): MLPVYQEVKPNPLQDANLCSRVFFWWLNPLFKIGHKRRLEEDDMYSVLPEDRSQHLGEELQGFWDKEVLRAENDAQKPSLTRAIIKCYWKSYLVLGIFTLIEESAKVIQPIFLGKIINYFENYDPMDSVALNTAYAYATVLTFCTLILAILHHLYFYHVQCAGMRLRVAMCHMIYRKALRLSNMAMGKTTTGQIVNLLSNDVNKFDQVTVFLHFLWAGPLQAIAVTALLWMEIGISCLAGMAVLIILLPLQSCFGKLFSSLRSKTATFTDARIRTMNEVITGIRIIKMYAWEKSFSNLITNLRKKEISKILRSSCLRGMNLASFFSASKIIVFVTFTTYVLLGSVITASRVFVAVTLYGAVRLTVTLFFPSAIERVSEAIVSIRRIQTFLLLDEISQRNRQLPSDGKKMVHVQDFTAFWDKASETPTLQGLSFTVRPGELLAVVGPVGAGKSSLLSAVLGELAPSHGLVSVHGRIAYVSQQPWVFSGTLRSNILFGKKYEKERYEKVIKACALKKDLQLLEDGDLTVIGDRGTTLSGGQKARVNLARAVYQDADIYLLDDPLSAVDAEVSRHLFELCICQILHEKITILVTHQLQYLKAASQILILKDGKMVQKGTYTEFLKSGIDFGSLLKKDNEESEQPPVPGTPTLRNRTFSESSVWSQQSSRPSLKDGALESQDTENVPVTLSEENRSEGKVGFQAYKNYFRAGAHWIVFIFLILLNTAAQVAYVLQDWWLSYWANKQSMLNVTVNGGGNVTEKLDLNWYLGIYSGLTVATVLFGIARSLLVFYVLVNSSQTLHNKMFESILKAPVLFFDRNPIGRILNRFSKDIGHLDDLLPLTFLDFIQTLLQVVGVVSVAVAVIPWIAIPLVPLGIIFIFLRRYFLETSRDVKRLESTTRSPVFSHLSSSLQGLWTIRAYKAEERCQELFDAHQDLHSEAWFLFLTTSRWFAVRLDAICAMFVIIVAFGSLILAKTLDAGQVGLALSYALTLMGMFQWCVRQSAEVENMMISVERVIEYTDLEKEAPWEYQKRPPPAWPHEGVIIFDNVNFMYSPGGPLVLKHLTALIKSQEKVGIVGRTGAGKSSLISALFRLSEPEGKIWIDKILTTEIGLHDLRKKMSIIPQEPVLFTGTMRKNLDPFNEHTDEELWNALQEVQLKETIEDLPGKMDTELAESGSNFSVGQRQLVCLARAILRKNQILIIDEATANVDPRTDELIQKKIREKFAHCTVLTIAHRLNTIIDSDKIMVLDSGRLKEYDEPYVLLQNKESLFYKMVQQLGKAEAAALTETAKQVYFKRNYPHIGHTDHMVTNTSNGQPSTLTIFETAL

[2] = biological target: T2, ATP-binding cassette sub-family C member 4 (Homo sapiens, UniProt O15439); assay: TP_TRANSPORTER: inhibition of cGMP uptake ([…]: 1 uM, Dipyridamole: 1 uM) in membrane vesicles from MRP4-expressing Sf9 cells; parameters: scale not given: the % may be the effect or the level left; settings: sf9, 1 µM
T2 sequence (O15439 whole entry): T1 sequence (O15439 whole entry)

MRP4 (ABCC4) [3] = biological target: T1, MRP4 (ABCC4); assay: TP_TRANSPORTER: inhibition of MTX uptake (MTX: 0.1 uM, NAc-DNP-Cys: 100 uM) in membrane vesicles from MRP4-expressing Sf9 cells; parameters: scale not given: the % may be the effect or the level left; settings: probe methotrexate 0.1 uM, read-out: Activity
MRP4 (ABCC4) [4] = biological target: T1, MRP4 (ABCC4); assay: TP_TRANSPORTER: inhibition of Methotrexate uptake (MTX: 0.1 uM, DNP-SG: 100 uM) in membrane vesicles from MRP4-expressing Sf9 cells; parameters: scale not given: the % may be the effect or the level left; settings: probe methotrexate 0.1 uM, read-out: Activity
[5] = biological target: T2, ATP-binding cassette sub-family C member 4; assay: TP_TRANSPORTER: inhibition of cGMP uptake ([…]: 1 uM, Probenecid: 1000 uM) in membrane vesicles from MRP4-expressing Sf9 cells; parameters: scale not given: the % may be the effect or the level left; settings: sf9, 1000 µM
MRP4 (ABCC4) [6] = biological target: T1, MRP4 (ABCC4); assay: TP_TRANSPORTER: inhibition of MTX uptake (MTX: 0.1 uM, E217betaG: 100 uM) in membrane vesicles from MRP4-expressing Sf9 cells; parameters: scale not given: the % may be the effect or the level left; settings: probe methotrexate 0.1 uM, read-out: Activity
MRP4 (ABCC4) [7] = biological target: T1, MRP4 (ABCC4); assay: TP_TRANSPORTER: inhibition of Methotrexate uptake (MTX: 0.1 uM, alpha-naphthyl beta-D-glucuronide: 1000 uM) in membrane vesicles from MRP4-expressing Sf9 cells; parameters: scale not given: the % may be the effect or the level left; settings: probe methotrexate 0.1 uM, read-out: Activity
[8] = substrate: CN(Cc1cnc2nc(N)nc(N)c2n1)c1ccc(C(=O)N[C@@H](CCC(=O)O)C(=O)O)cc1; assay: TP_TRANSPORTER: uptake in membrane vesicles from MRP4-expressing Sf9 cells

activity at 1000 µM (MRP4 (ABCC4) [1]): 25%
Molecule: O=C(O)[C@H]1O[C@@H](Oc2ccc([N+](=O)[O-])cc2)[C@H](O)[C@@H](O)[C@@H]1O

Activity [2]: 9%
Molecule: OCCN(CCO)c1nc(N2CCCCC2)c2nc(N(CCO)CCO)nc(N3CCCCC3)c2n1 [DIPYRIDAMOLE]

activity at 100 µM (MRP4 (ABCC4) [3]): 29%
Molecule: CC(=O)N[C@@H](CSc1ccc([N+](=O)[O-])cc1[N+](=O)[O-])C(=O)O

Molecule: N[C@@H](CCC(=O)N[C@H](CSc1ccc([N+](=O)[O-])cc1[N+](=O)[O-])C(=O)NCC(=O)O)C(=O)O
activity at 100 µM (MRP4 (ABCC4) [4]): 3%

Activity [5]: 10%
Molecule: CCCN(CCC)S(=O)(=O)c1ccc(C(=O)O)cc1 [PROBENECID]

Molecule: C[C@]12CC[C@@H]3c4ccc(O)cc4CC[C@H]3[C@@H]1CC[C@@H]2O[C@@H]1O[C@H](C(=O)O)[C@@H](O)[C@H](O)[C@H]1O [ESTRADIOL 17B GLUCURONIDE]
activity at 100 µM (MRP4 (ABCC4) [6]): 75%

activity at 1000 µM (MRP4 (ABCC4) [7]): 18%
Molecule: O=C(O)[C@H]1O[C@@H](Oc2cccc3ccccc23)[C@H](O)[C@@H](O)[C@@H]1O

B1: ATP-binding cassette sub-family C member 4 (Homo sapiens) (protein)
chain: T1 sequence (O15439 whole entry)
Km [8]: 1300 µM

— ChEMBL document CHEMBL2074199, “The MRP4/ABCC4 gene encodes a novel apical organic anion transporter in human kidney proximal tubules: putative efflux pump for urinary cAMP and cGMP” (J Am Soc Nephrol, 2002)
